Results taken from patent US20210255193A1, “LYSINE REACTIVE PROBES AND USES THEREOF” (The Scripps Research Institute, priority 2017, published 2021).

Legend:
Assay in all cases: competitive isoTOP-ABPP
Assay type in all cases: binding
PLIN3 Perilipin-3 = biological target: T1, PLIN3 Perilipin-3 (Homo sapiens, UniProt O60664); design: key to isoTOP-ABPP reactivity ratio at lysine O60664_K257 / isoTOP-ABPP reactivity ratio at lysine O60664_K140: R = MS1 peak area ratio, DMSO (heavy) / compound-treated (light); capped at 20; details: for isoTOP-ABPP reactivity ratio at lysine O60664_K140 / isoTOP-ABPP reactivity ratio at lysine O60664_K257 / isoTOP-ABPP ratio (R) at liganded lysine O60664_K140 / isoTOP-ABPP ratio (R) at liganded lysine O60664_K257: 50 uM, in vitro; for isoTOP-ABPP reactivity ratio at lysine O60664_K140 / isoTOP-ABPP reactivity ratio at lysine O60664_K257: 231 sol; for isoTOP-ABPP ratio (R) at liganded lysine O60664_K140 / isoTOP-ABPP ratio (R) at liganded lysine O60664_K257: sol, 231
T1 construct: isoTOP-ABPP experiments performed in cell lysates (in vitro); endogenous in cells; host or cells: MDA-MB-231 soluble lysate
T1 sequence (O60664 1-434): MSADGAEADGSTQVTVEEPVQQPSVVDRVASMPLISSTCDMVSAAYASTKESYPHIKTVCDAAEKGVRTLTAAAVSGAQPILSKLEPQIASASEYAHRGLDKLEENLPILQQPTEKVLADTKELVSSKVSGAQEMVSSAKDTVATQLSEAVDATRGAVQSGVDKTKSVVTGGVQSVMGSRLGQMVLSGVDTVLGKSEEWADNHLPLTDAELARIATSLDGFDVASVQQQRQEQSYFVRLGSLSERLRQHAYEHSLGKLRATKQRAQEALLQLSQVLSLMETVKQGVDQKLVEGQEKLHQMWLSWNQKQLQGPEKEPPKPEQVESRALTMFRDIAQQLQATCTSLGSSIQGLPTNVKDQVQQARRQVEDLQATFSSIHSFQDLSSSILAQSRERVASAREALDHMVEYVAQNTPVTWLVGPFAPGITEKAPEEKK
Method: (§1) In vitro covalent fragment treatment for isoTOP-ABPP. All compounds were made up as solutions in DMSO (100×) and were used at a final concentration of 50 μM for activated esters and 100 μM for guanidinylating agents. For each profiling sample, 0.5 ml of lysate was treated with 5 μl of the 100× compound stock solution or 5 μl of DMSO. Samples were treated with activated esters for
(§2) STP-alkyne labeling and click chemistry. For concentration-dependent reactivity measurements by isoTOP-ABPP, 0.5 ml proteome aliquots were treated at ambient temperature with 1 mM STP-alkyne 1 (5 μl of 100 mM stock in DMSO) and 0.1 mM STP alkyne 1 (5 μl of 10 mM stock in DMSO), respectively. For competitive isoTOP-ABPP, after in vitro fragment treatment (detailed above), the samples were labeled for 1 h at ambient temperature with 0.1 mM STP-alkyne 1 (5 μl of 10 mM stock in DMSO). Samples were conjugated by copper-mediated azide-alkyne cycloaddition (CuAAC) to either the light (1 mM STP-alkyne or fragment treated) or heavy (0.1 mM STP-alkyne or DMSO treated) TEV tags (10 μl of 5 mM stocks in DMSO, final concentration=100 μM) using tris(2-carboxyethyl)phosphine hydrochloride
(§3) R value calculation and processing. The ratios of light and heavy MS1 peaks for each unique peptide were quantified with a CIMAGE software using default parameters (3 MS1 acquisitions per peak and signal to noise threshold set to 2.5). For reactivity measurements by isoTOP-ABPP, the R value was calculated from the ratio of MS1 peak areas, comparing the 1 mM STP alkyne sample (light TEV tag) with the 0.1 mM STP alkyne sample (heavy TEV tag). For competitive isoTOP-ABPP, the R value was calculated from the ratio of MS1 peak areas, comparing the DMSO treated sample (heavy TEV tag) with the compound treated sample (light TEV tag). […] Ratios for unique peptide entries are calculated for each experiment; overlapping peptides with the same modified lysine (for example, different charge states, MudPIT chromatographic steps or tryptic termini) are grouped together and the median ratio is reported as the final ratio (R). The peptide ratios reported by CIMAGE were further filtered to ensure the removal or correction of low-quality ratios in each individual data set. The quality filters applied were the following: removal of half tryptic peptides; for ratios with high standard deviations from the median (90% of the median or above) the lowest ratio was taken instead of the median; removal of peptides with R=20 and only a single MS2 event triggered during the elution of the parent ion; manual annotation of all the peptides with ratios of 20, removing any peptides with low quality elution profiles that remained after the previous curation steps (only done for competitive isoTOP-ABPP).
(§4) Cross-data processing for fragment screening. For compound treated samples, biological replicates of the same condition were averaged, if the standard deviation was below 60% of the mean; otherwise, for lysines with at least one R value <4 for a particular compound, the lowest value of the ratio set was taken. For lysines, where all R values for a particular compound were ≥4, the average was reported. For peptides containing several possible modified lysines, the lysine with the highest number of quantification events was used for analysis and the remaining, redundant peptides were reported as alternative modification sites. Peptides included in the aggregate dataset (those used for further bioinformatics and statistical analyses) were required to have been quantified in 2 experiments for competitive isoTOP-ABPP. Lysines were categorized as liganded, if they had at least one ratio R≥4 (hit fragments). For liganded lysines with R=20 for all liganding events, lysines were required to have been quantified with R=20 in two separate experiments and were further required to have been quantified with R<20 in one additional experiment.

[1] = biological target: T2, SRP54 Signal recognition particle 54 kDa protein (Homo sapiens, UniProt P61011); design: key to isoTOP-ABPP reactivity ratio at lysine P61011_K81: R = MS1 peak area ratio, DMSO (heavy) / compound-treated (light); capped at 20; details: for isoTOP-ABPP reactivity ratio at lysine P61011_K81 / isoTOP-ABPP ratio (R) at liganded lysine P61011_K81: 50 uM, in vitro; for isoTOP-ABPP reactivity ratio at lysine P61011_K81: 231 sol; for isoTOP-ABPP ratio (R) at liganded lysine P61011_K81: sol, 231; for isoTOP-ABPP ratio, lysine P61011_K81: 50 uM_231_sol_in vitro
T2 construct: isoTOP-ABPP experiments performed in cell lysates (in vitro); endogenous in cells; host or cells: soluble proteome of human cancer cell lines (MDA-MB-231, Ramos, Jurkat)
Method: as §1, §2, §3, §4

[2] = biological target: T3, ACBD3 Golgi resident protein GCP60 (Homo sapiens, UniProt Q9H3P7); design: key to isoTOP-ABPP reactivity ratio at lysine Q9H3P7_K117: R = MS1 peak area ratio, DMSO (heavy) / compound-treated (light); details: for isoTOP-ABPP reactivity ratio at lysine Q9H3P7_K117 / isoTOP-ABPP ratio (R) at liganded lysine Q9H3P7_K117: 50 uM, in vitro; for isoTOP-ABPP reactivity ratio at lysine Q9H3P7_K117: 231 sol; for isoTOP-ABPP ratio (R) at liganded lysine Q9H3P7_K117: sol, 231; for isoTOP-ABPP ratio, lysine Q9H3P7_K117: 50 uM_231_sol_in vitro
T3 construct: isoTOP-ABPP experiments performed in cell lysates (in vitro); endogenous in cells; host or cells: soluble proteome of human cancer cell lines (MDA-MB-231; Ramos and Jurkat also prepared)
T3 sequence (Q9H3P7 1-528): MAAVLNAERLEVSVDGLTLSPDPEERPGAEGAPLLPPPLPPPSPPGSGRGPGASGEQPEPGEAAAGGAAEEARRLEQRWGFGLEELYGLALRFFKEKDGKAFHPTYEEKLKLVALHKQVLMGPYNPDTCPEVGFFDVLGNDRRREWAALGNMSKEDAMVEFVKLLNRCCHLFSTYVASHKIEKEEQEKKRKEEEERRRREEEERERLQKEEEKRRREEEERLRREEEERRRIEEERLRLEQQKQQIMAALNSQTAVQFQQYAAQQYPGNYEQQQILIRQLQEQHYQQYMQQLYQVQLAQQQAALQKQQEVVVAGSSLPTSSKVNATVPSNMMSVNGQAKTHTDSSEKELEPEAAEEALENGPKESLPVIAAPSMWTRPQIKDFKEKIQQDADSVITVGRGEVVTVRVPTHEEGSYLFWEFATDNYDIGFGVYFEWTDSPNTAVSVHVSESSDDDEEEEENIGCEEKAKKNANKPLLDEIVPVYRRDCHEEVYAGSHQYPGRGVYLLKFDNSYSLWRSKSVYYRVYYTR
Method: as §1, §2, §3, §4

T2 sequence (P61011 whole entry): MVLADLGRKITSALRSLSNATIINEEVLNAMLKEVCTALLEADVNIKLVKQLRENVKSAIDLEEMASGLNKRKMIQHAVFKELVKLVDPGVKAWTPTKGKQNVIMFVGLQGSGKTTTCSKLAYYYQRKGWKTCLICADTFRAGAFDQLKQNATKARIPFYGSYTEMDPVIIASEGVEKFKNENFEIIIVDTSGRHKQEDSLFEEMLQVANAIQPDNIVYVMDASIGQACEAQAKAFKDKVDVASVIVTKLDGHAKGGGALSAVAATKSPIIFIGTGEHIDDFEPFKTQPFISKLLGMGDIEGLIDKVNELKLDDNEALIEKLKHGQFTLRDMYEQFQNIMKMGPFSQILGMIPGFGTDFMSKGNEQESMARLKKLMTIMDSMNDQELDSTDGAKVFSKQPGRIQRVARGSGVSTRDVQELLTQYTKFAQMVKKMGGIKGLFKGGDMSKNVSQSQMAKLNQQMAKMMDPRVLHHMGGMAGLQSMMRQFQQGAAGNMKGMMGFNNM

| SMILES | isoTOP-ABPP reactivity ratio at lysine O60664_K140 (PLIN3 Perilipin-3) | isoTOP-ABPP reactivity ratio at lysine O60664_K257 (PLIN3 Perilipin-3) | isoTOP-ABPP reactivity ratio at lysine P61011_K81 [1] | isoTOP-ABPP reactivity ratio at lysine Q9H3P7_K117 [2] | isoTOP-ABPP ratio (R) at liganded lysine O60664_K140 (PLIN3 Perilipin-3) | isoTOP-ABPP ratio (R) at liganded lysine O60664_K257 (PLIN3 Perilipin-3) | isoTOP-ABPP ratio (R) at liganded lysine P61011_K81 [1] | isoTOP-ABPP ratio (R) at liganded lysine Q9H3P7_K117 [2] | further results |
| --- | --- | --- | --- | --- | --- | --- | --- | --- | --- |
| O=C(CCc1coc2cc(F)ccc2c1=O)Oc1c(F)c(F)c(F)c(F)c1F [fragment 26, Pentafluorophenyl 3-(7-fluoro-4-oxo-4H-chromen-3-yl)propanoate] | 1.2 | 4.1 | 1.0 | 1.8 |  |  |  |  |  |
| CCn1cc(C(=O)Oc2c(F)c(F)c(F)c(F)c2F)c(=O)c2ccc(C)nc21 [fragment 28, Pentafluorophenyl 1-ethyl-7-methyl-4-oxo-1,4-dihydro-1,8-naphthyridine-3-carboxylate] | 1.2 | 1.1 | 0.8 | 1.1 |  |  |  |  |  |
| O=C(CCc1cn(-c2ccccc2)nc1-c1ccccc1)Oc1ccc([N+](=O)[O-])cc1[N+](=O)[O-] [fragment 29, 2,4-Dinitrophenyl 3-(1,3-diphenyl-1H-pyrazol-4-yl)propanoate] | 2.1 | 3.5 | 1.1 | 1.0 |  |  |  |  |  |
| O=C(Oc1ccc([N+](=O)[O-])cc1[N+](=O)[O-])C(c1ccccc1)c1ccccc1 [fragment 30, 2,4-Dinitrophenyl 2,2-diphenylacetate] | 4.5 | 2.9 | 20.0 | 1.7 |  |  |  |  |  |
| COc1cc(CCC(=O)Oc2ccc([N+](=O)[O-])cc2[N+](=O)[O-])cc(OC)c1OC [fragment 33, 2,4-Dinitrophenyl 3-(3,4,5-trimethoxyphenyl)propanoate] | 1.1 | 2.2 | 1.3 | 1.1 |  |  |  |  |  |
| O=C(Oc1ccc([N+](=O)[O-])cc1[N+](=O)[O-])c1ccc2ccccc2n1 [fragment 35, 2,4-Dinitrophenyl quinoline-2-carboxylate] |  |  |  |  | 1.1 | 1.2 | 0.8 | 1.3 |  |
| O=C(CCc1coc2cc(F)ccc2c1=O)Oc1ccc([N+](=O)[O-])cc1[N+](=O)[O-] [fragment 36, 2,4-Dinitrophenyl 3-(7-fluoro-4-oxo-4H-chromen-3-yl)propanoate] |  |  |  |  | 1.5 | 3.9 | 1.3 | 1.4 |  |
| O=C(Oc1ccc([N+](=O)[O-])cc1[N+](=O)[O-])c1ccc(-c2ccccc2)cc1 [fragment 37, 2,4-Dinitrophenyl [1,1′-biphenyl]-4-carboxylate] |  |  |  |  |  | 3.5 | 0.9 | 0.9 |  |
| O=C(Oc1ccc([N+](=O)[O-])cc1[N+](=O)[O-])c1ccc(Oc2ccccc2)cc1 [fragment 39, 2,4-Dinitrophenyl 4-phenoxybenzoate] |  |  |  |  | 2.0 | 2.2 | 0.9 | 0.9 |  |
| CC(C)(C)OC(=O)NCCCC(=O)Oc1ccc([N+](=O)[O-])cc1[N+](=O)[O-] [fragment 41, 2,4-Dinitrophenyl 4-((tert-butoxycarbonyl)amino)butanoate] |  |  |  |  | 2.1 |  | 1.0 | 1.2 |  |
| O=C(Oc1ccc([N+](=O)[O-])cc1[N+](=O)[O-])C(c1ccccc1)(c1ccccc1)c1ccccc1 [fragment 42, 2,4-Dinitrophenyl 2,2,2-triphenylacetate] |  |  |  |  | 0.9 | 0.9 | 0.9 | 1.0 |  |
| N#Cc1ccc(C(=O)Oc2ccc([N+](=O)[O-])cc2[N+](=O)[O-])cc1 [fragment 44, 2,4-Dinitrophenyl 4-cyanobenzoate] |  |  |  |  |  |  |  |  | isoTOP-ABPP ratio, lysine O60664_K257 (PLIN3 Perilipin-3; 50 uM_231_sol_in vitro): 1.9; isoTOP-ABPP ratio, lysine P61011_K81 [1]: 1.0; isoTOP-ABPP ratio, lysine Q9H3P7_K117 [2]: 0.8 |
| O=C(CCc1ccc2c(c1)OCO2)Oc1ccc([N+](=O)[O-])cc1[N+](=O)[O-] [fragment 45, 2,4-Dinitrophenyl 3-(benzo[d][1,3]dioxol-5-yl)propanoate] |  |  |  |  |  |  |  |  | isoTOP-ABPP ratio, lysine O60664_K140 (PLIN3 Perilipin-3; 50 uM_231_sol_in vitro): 2.1; isoTOP-ABPP ratio, lysine O60664_K257 (PLIN3 Perilipin-3; 50 uM_231_sol_in vitro): 2.5; isoTOP-ABPP ratio, lysine P61011_K81 [1]: 1.0; isoTOP-ABPP ratio, lysine Q9H3P7_K117 [2]: 1.1 |
